Results on 41 compounds are retold here after ChEMBL document CHEMBL5579839, “Discovery of new cyclopropane sulfonamide derivatives as EGFR inhibitors to overcome C797S-mediated resistance and EGFR double mutation” (Eur J Med Chem, 2024).

Data set [1] is described as follows: Toxicity in nude mouse xenografted with human NCI-H1975 cells assessed as body weight loss at 25 mg/kg, po measured for 7 days. To be noted: in vivo, 168 h, time 7 day. The class given is organism-based. (In xenograft studies the graft and the host belong to different species.)
A short description of data set [2]: Cytotoxicity against human HaCaT cells. The class given is toxicity, cell-based.
Data set [3] is described as follows: Cytotoxicity against VEGF-stimulated human HUVEC cells. The format is toxicity, cell-based.
Data set [4] can be described thus: Cytotoxicity against human HUVEC cells. The class given is toxicity, cell-based.
Data set [5] in a line: Cytotoxicity against human HK-2 cells. The format is toxicity, cell-based.
Data set [6] has as its system BaF3. Description: Antiproliferative activity against mouse BaF3 cells harboring EGFR C797S/L858R/T790M mutant. The class given is functional, cell-based.
The test system of data set [7] is BaF3. Description: Antiproliferative activity against mouse BaF3 cells harboring EGFR C797S/Del19/T790M mutant. The class given is functional, cell-based.
Data set [8] relates to BaF3. Nature of the data set: Inhibition of cell growth in mouse BaF3 cells harboring EGFR L858R/T790M/C797S mutant. The class given is functional, cell-based.
In data set [9] the test system is BaF3. Nature of the data set: Inhibition of cell growth in mouse BaF3 cells harboring EGFR del19/T790M/C797S mutant. The format is functional, cell-based.
A short description of data set [10]: Cytotoxicity against human L02 cells. The class given is toxicity, cell-based.
The test system of data set [11] is BaF3. Nature of the data set: Inhibition of cell growth in mouse BaF3 cells harboring EGFR del19/T790M/C797S mutant incubated for 72 hrs by fluorescence based assay. The format is functional. The following applies: BaF3, 72 h.
For data set [12], the system named is BaF3. Nature of the data set: Inhibition of cell proliferation in mouse BaF3 cells harboring EGFR L858R/T790M mutant incubated for 72 hrs by MTS assay. The format is functional, cell-based. The following applies: BaF3, 72 h. Background: Formazan colour is commonly taken as a measure of viable cells.
For data set [13], the target named is Epidermal growth factor receptor (Homo sapiens, UniProt P00533). Description: Inhibition of wild-type EGFR (unknown origin).
Sequence of Epidermal growth factor receptor (Homo sapiens, UniProt P00533) (P00533 whole entry): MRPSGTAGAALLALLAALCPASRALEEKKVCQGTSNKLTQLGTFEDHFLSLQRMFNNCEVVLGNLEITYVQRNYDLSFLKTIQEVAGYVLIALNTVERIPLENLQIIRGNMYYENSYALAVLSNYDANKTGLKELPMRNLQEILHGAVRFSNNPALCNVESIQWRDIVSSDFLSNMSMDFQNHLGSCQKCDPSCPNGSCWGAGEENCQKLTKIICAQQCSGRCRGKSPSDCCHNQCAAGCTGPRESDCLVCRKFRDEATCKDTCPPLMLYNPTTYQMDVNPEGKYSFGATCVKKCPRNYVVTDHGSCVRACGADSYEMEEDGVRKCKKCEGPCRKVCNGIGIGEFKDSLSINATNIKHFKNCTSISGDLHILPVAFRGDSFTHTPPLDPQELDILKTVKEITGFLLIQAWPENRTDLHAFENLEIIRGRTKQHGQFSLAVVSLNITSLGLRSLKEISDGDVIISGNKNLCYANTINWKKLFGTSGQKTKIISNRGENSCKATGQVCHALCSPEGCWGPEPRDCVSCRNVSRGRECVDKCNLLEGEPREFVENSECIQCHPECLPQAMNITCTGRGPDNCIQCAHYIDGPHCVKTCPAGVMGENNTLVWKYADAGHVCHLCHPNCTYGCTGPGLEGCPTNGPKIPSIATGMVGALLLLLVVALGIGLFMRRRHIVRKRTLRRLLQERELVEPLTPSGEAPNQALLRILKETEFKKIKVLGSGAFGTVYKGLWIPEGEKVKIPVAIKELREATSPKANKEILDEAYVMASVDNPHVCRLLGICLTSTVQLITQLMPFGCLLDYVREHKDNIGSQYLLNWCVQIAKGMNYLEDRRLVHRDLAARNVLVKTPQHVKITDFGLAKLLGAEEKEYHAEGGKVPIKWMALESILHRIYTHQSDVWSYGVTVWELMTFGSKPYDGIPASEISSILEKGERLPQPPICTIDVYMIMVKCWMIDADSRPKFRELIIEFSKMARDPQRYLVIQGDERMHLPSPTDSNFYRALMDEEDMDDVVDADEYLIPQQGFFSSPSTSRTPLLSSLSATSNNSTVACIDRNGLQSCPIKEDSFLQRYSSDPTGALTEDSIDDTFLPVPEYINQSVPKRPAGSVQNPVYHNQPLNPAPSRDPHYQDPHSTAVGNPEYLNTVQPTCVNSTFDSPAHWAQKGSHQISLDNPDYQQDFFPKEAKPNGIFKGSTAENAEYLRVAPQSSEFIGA
For data set [14], the target named is Epidermal growth factor receptor (Homo sapiens, UniProt P00533, L858R/T790M). Nature of the data set: Inhibition of EGFR T790M/L858R mutant (unknown origin).
Sequence of Epidermal growth factor receptor (Homo sapiens, UniProt P00533, L858R/T790M) (P00533 25-1210 T790M/L858R limits assumed): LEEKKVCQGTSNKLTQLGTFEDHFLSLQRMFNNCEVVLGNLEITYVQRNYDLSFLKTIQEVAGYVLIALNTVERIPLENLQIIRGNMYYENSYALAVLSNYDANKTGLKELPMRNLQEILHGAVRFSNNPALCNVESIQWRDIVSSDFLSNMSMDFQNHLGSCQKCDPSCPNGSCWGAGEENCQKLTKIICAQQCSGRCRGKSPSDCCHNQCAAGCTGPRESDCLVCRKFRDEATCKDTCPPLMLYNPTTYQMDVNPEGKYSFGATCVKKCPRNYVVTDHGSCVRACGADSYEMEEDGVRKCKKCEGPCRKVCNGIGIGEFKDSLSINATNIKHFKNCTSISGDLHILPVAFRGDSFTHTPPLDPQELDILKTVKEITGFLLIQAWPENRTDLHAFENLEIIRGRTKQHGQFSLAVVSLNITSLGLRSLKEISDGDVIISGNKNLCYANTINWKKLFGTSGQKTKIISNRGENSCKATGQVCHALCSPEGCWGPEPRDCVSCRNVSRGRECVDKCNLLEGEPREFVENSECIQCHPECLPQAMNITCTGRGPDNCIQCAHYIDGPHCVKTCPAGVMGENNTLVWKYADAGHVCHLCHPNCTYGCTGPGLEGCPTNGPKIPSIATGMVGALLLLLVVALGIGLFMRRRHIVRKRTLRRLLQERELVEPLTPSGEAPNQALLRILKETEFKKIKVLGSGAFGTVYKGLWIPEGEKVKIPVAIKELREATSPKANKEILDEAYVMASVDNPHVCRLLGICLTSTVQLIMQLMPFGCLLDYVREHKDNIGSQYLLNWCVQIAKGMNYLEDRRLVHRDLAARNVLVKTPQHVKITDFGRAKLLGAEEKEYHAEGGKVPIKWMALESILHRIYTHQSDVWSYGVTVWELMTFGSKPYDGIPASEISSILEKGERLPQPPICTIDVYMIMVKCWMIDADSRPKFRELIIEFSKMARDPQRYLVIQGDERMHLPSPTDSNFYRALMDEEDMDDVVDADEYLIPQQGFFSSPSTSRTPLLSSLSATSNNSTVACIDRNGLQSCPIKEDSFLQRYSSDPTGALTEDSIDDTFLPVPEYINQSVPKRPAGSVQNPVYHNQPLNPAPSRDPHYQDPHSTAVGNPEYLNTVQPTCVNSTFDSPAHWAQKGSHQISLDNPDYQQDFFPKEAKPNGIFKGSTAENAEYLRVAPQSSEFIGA
Data set [15] addresses Epidermal growth factor receptor (Homo sapiens, UniProt P00533, C797S/EX19DEL/T790M). Nature of the data set: Inhibition of EGFR C797S/T790M/Del19 mutant (unknown origin).
Data set [16] has as its target Epidermal growth factor receptor (Homo sapiens, UniProt P00533, C797S/L858R/T790M). Description: Inhibition of EGFR C797S/T790M/L858R mutant (unknown origin).

The IC50 is the concentration that inhibits the measured activity by half. A high value points to weaker potency in that assay.

Sequence of Epidermal growth factor receptor (Homo sapiens, UniProt P00533, C797S/L858R/T790M) (P00533 25-1210 T790M/C797S/L858R limits assumed): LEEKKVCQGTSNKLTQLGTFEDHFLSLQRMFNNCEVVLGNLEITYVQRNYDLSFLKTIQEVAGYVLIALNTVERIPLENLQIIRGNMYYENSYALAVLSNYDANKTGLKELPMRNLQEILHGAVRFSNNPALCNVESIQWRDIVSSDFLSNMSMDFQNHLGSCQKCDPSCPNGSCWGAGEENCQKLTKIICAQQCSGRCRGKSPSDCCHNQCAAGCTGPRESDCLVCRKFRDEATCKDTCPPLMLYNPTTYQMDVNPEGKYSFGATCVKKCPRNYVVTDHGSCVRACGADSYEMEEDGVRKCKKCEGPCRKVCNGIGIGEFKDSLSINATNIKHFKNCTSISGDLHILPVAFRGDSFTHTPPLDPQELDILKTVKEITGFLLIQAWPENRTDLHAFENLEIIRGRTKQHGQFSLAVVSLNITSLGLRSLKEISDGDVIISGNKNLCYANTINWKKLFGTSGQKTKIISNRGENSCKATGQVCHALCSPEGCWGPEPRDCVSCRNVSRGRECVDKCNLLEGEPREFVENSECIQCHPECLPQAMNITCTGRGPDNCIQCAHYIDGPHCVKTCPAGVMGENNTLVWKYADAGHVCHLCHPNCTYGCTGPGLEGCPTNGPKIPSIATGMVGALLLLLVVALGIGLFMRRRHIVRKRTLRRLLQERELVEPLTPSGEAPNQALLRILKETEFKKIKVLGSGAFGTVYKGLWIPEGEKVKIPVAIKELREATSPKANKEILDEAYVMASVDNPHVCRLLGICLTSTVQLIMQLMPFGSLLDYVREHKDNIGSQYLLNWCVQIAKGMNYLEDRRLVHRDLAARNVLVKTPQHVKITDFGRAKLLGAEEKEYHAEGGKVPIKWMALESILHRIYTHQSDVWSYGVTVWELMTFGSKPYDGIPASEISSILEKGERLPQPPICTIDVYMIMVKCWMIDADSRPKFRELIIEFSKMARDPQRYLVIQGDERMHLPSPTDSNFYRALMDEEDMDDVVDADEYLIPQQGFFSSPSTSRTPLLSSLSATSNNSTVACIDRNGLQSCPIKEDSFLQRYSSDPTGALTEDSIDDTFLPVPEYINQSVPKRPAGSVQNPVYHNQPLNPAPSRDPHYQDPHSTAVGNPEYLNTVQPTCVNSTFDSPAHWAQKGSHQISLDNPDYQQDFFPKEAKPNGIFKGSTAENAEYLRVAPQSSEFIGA
Sequence of Epidermal growth factor receptor (Homo sapiens, UniProt P00533, C797S/EX19DEL/T790M) (P00533 whole entry, looked up, stated change not applied): as the sequence (P00533 whole entry) above

For `C=CC(=O)Nc1cc(Nc2nccc(-c3cn(C)c4ccccc34)n2)c(OC)cc1N(C)CCN(C)C` [OSIMERTINIB], the Activity result in data set [1] is recorded as “Toxic”. Also, the concentration for half-maximal inhibition (IC50) in data set [2] is 3360 nM; in [3] it was 2400 nM; in [4] it was 2400 nM; in data set [5], 2140 nM.
`CN1CCCN(c2ccc(Nc3ncc(Cl)c(Nc4ccccc4NS(=O)(=O)C4CC4)n3)cc2)CC1`: the figures for the IC50 with BaF3 [6] and in the data set with BaF3 [7] were 10 nM and 8 nM, respectively.
For `CN1CCCN(c2ccc(Nc3ncc(Cl)c(Nc4ccccc4NS(=O)(=O)C4CC4)n3)cc2NS(=O)(=O)C2CC2)CC1`, in that order: 413 nM and 407 nM.
In the case of `O=S(=O)(Nc1ccccc1Nc1nc(Nc2cccc3[nH]ccc23)ncc1Br)C1CC1`, the IC50 came to 124 nM with BaF3 [6] and 159 nM with BaF3 [7].
For `CCS(=O)(=O)Nc1cc(Nc2ncc(Cl)c(Nc3ccccc3NS(=O)(=O)C3CC3)n2)ccc1N1CCCN(C)CC1` the same measures were 698 nM and 682 nM.
For `CN1CCCN(c2ccc(Nc3ncc(Br)c(Nc4ccccc4NS(=O)(=O)C4CC4)n3)cc2NS(=O)(=O)C2CC2)CC1`, in that order: 377 nM and 351 nM.
For `Cc1cc(Nc2ncc(Br)c(Nc3ccccc3NS(=O)(=O)C3CC3)n2)ccc1N1CCC(N(C)C)CC1` the same measures were 3 nM and 4 nM.
On to `Cn1ccc2c(Nc3ncc(Cl)c(Nc4ccccc4NS(=O)(=O)C4CC4)n3)cccc21`, for which the IC50 in the data set on BaF3 [6] came to 211 nM; with BaF3 [7] it was 199 nM.
For the compound `O=S(=O)(Nc1ccccc1Nc1nc(Nc2cccc3[nH]cnc23)ncc1Cl)C1CC1`, the IC50 is 175 nM in the data set with BaF3 [6] and 191 nM in the data set with BaF3 [7].
For `CN1CCN(c2ccc(Nc3ncc(Cl)c(Nc4ccccc4P(C)(C)=O)n3)cc2Br)CC1`, the IC50 with BaF3 [8] came out at 3.1 nM; in the data set on BaF3 [9], 2.4 nM.
`CN(C)C1CCN(c2ccc(Nc3ncc(Br)c(Nc4ccccc4NS(=O)(=O)C4CC4)n3)cc2NS(C)(=O)=O)CC1`: the IC50 worked out at 785 nM in the data set with BaF3 [6] and 769 nM in the data set with BaF3 [7].
For `CN1CCCN(c2ccc(Nc3ncc(Cl)c(Nc4ccccc4NS(=O)(=O)C4CC4)n3)cc2NS(C)(=O)=O)CC1` the same measures were 723 nM and 712 nM.
`COc1cc(N2CCC(N3CCN(C)CC3)CC2)ccc1Nc1ncc(Cl)c(Nc2ccccc2P(C)(C)=O)n1` [BRIGATINIB]: the IC50 with BaF3 [6] turned out to be 71 nM; in data set [2], 5020 nM; in [3] it was 2400 nM; in data set [10], 1400 nM; in data set [4], 2170 nM; in the data set on BaF3 [7] it was 65 nM. For the same compound, 2130 nM corresponded to half-maximal inhibition in [5] (IC50).
As to `CN(C)C1CCN(c2ccc(Nc3ncc(Cl)c(Nc4ccccc4NS(=O)(=O)C4CC4)n3)cc2)CC1`, the IC50 was determined as 15 nM in the data set on BaF3 [6] and 11 nM in the data set on BaF3 [7].
On to `O=S(=O)(Nc1ccccc1Nc1nc(Nc2cccc3[nH]ccc23)ncc1Cl)C1CC1`, for which the IC50 in the data set with BaF3 [6] was 196 nM; in the data set with BaF3 [7], 185 nM.
Regarding `CN(C)C1CCN(c2ccc(Nc3ncc(Cl)c(Nc4ccccc4NS(=O)(=O)C4CC4)n3)cc2NS(C)(=O)=O)CC1`, the IC50 with BaF3 [6] came out at 844 nM; in the data set on BaF3 [7], 795 nM.
For the compound `COc1cc(N2CCC(N(C)C)CC2)ccc1Nc1ncc(Br)c(Nc2ccccc2NS(=O)(=O)C2CC2)n1`, the IC50 in the data set on BaF3 [6] came out at 79 nM; in the data set with BaF3 [7], 75 nM.
Regarding `Cn1ccc2ccc(Nc3ncc(Br)c(Nc4ccccc4NS(=O)(=O)C4CC4)n3)cc21`, the IC50 in the data set on BaF3 [6] was determined as 257 nM; with BaF3 [7], 271 nM.
Take `CN(C)CCn1ccc2cccc(Nc3ncc(Br)c(Nc4ccccc4NS(=O)(=O)C4CC4)n3)c21`: the values for the IC50 with BaF3 [6] and in the data set with BaF3 [7] were 324 nM and 388 nM, respectively.
Regarding `COc1cc(N2CCCN(C)CC2)ccc1Nc1ncc(Br)c(Nc2ccccc2NS(=O)(=O)C2CC2)n1`, the IC50 in the data set with BaF3 [6] is 67 nM; in the data set on BaF3 [7], 65 nM.
For `Cn1ccc2ccc(Nc3ncc(Cl)c(Nc4ccccc4NS(=O)(=O)C4CC4)n3)cc21` the same measures were 284 nM and 274 nM.
Turning to `CCS(=O)(=O)Nc1cc(Nc2ncc(Br)c(Nc3ccccc3NS(=O)(=O)C3CC3)n2)ccc1N1CCC(N(C)C)CC1`, the half-inhibitory concentration (IC50) in the data set on BaF3 [6] worked out at 613 nM; in the data set on BaF3 [7], 608 nM.
For `CN1CCCN(c2ccc(Nc3ncc(Br)c(Nc4ccccc4NS(=O)(=O)C4CC4)n3)cc2NS(C)(=O)=O)CC1`, in that order: 791 nM and 775 nM.
For the compound `CCS(=O)(=O)Nc1cc(Nc2ncc(Br)c(Nc3ccccc3NS(=O)(=O)C3CC3)n2)ccc1N1CCCN(C)CC1`, the IC50 came to 631 nM in the data set on BaF3 [6] and 635 nM in the data set on BaF3 [7].
`CN(C)CCN(C)c1ccc(Nc2ncc(Br)c(Nc3ccccc3NS(=O)(=O)C3CC3)n2)cc1`: the values for the IC50 in the data set on BaF3 [6] and with BaF3 [7] were 15 nM and 13 nM, respectively.
In the case of `Cc1cc(Nc2ncc(Br)c(Nc3ccccc3NS(=O)(=O)C3CC3)n2)ccc1N(C)CCN(C)C`, the half-maximal inhibitory concentration (IC50) was 17 nM with BaF3 [6] and 15 nM in the data set with BaF3 [7].
For `CN(C)CCN(C)c1ccc(Nc2ncc(Cl)c(Nc3ccccc3NS(=O)(=O)C3CC3)n2)cc1`, in that order: 28 nM and 24 nM.
On to `CN(C)CCn1ccc2cccc(Nc3ncc(Cl)c(Nc4ccccc4NS(=O)(=O)C4CC4)n3)c21`, for which the IC50 was 356 nM with BaF3 [6] and 342 nM in the data set with BaF3 [7].
For `Cc1cc(Nc2ncc(Cl)c(Nc3ccccc3NS(=O)(=O)C3CC3)n2)ccc1N1CCCN(C)CC1` the same measures were 4 nM and 8 nM.
As for `COc1cc(N2CCC(N(C)C)CC2)ccc1Nc1ncc(Cl)c(Nc2ccccc2NS(=O)(=O)C2CC2)n1`, the figures for the half-maximal inhibitory concentration (IC50) with BaF3 [6] and with BaF3 [7] were 98 nM and 101 nM, respectively.
For `Cn1cnc2ccc(Nc3ncc(Cl)c(Nc4ccccc4NS(=O)(=O)C4CC4)n3)cc21`, in that order: 185 nM and 198 nM.
Consider `CN(C)C1CCN(c2ccc(Nc3ncc(Br)c(Nc4ccccc4NS(=O)(=O)C4CC4)n3)cc2NS(=O)(=O)C2CC2)CC1`, for which the IC50 with BaF3 [6] was found to be 398 nM; in the data set with BaF3 [7] it was 410 nM.
For the compound `Cn1ccc2c(Nc3ncc(Br)c(Nc4ccccc4NS(=O)(=O)C4CC4)n3)cccc21`, the 50% inhibitory concentration (IC50) in the data set with BaF3 [6] was 183 nM; in the data set with BaF3 [7], 177 nM.
For `COc1cc(N2CCCN(C)CC2)ccc1Nc1ncc(Cl)c(Nc2ccccc2NS(=O)(=O)C2CC2)n1`, in that order: 82 nM and 79 nM.
For `CN(C)C1CCN(c2ccc(Nc3ncc(Br)c(Nc4ccccc4NS(=O)(=O)C4CC4)n3)cc2)CC1`, in that order: 4 nM and 4 nM.
Turning to `Cn1cnc2ccc(Nc3ncc(Br)c(Nc4ccccc4NS(=O)(=O)C4CC4)n3)cc21`, the values for the IC50 in the data set on BaF3 [6] and with BaF3 [7] were 103 nM and 115 nM, respectively.
The compound `COc1cc(N2CCC(N3CCN(C)CC3)CC2)ccc1Nc1ncc(Cl)c(Nc2ccccc2NS(C)(=O)=O)n1` came in with an IC50 with BaF3 [11] of 27 nM.
`O=C(Nc1nccs1)C(c1cc(F)ccc1O)N1Cc2ccccc2C1=O` (stereo unspecified) gave an IC50 with BaF3 [12] of around 10 nM.
Take `Cc1cc(Nc2ncc(Br)c(Nc3ccccc3NS(=O)(=O)C3CC3)n2)ccc1N1CCCN(C)CC1`: the IC50 in data set [13] is 61.3 nM; in the data set on BaF3 [6], 1 nM; in data set [14], 10.2 nM; in data set [15], 0.3 nM; in the data set with BaF3 [7], 1 nM; in [16], 0.28 nM.
For the compound `Cc1cc(Nc2ncc(Cl)c(Nc3ccccc3NS(=O)(=O)C3CC3)n2)ccc1N(C)CCN(C)C`, the IC50 with BaF3 [6] stood at 29 nM; with BaF3 [7], 22 nM.
On to `Cc1cc(Nc2ncc(Cl)c(Nc3ccccc3NS(=O)(=O)C3CC3)n2)ccc1N1CCC(N(C)C)CC1`, for which the half-maximal inhibitory concentration (IC50) came to 68.7 nM in data set [13]; 2 nM in the data set on BaF3 [6]; 12.6 nM in [14]; 0.29 nM in [15]; 1 nM in the data set on BaF3 [7]; 0.37 nM in data set [16].
